Test results: patent US8323708B2, “Poultry meat and eggs comprising beneficial fatty acids” (Monsanto Technology LLC, priority 2009, dated 2012)

Tests used:
[1] = 21 day broiler study: long chain fatty acid composition of skinless breast meat; format: in vivo, broiler chickens; settings: day 21-42
Protocol: (§1) A 21 day study was conducted to determine whether broiler chickens fed a diet containing SDA could produce meat with elevated levels of omega-3 fatty acids including EPA and DHA.
(§2) Fifty pens of four birds per pen were used. There were 25 pens of males and 25 pens of females. Five pens of males and five pens of females were each fed one of five treatment diets from day 21 to 42 days of age. Prior to day 21 all birds were fed a standard 22% protein starter diet formulated to meet NRC (1994) nutrient requirements (shown in Table 16 as “S” diet). The feed prepared was feed as a crumble.
(§3) The test diets were prepared and fed in mash form. All broilers had ad libitum access to feed and water for the duration of the 21 day study. The composition of the diets (Table 4) and premixes (Table 5) are provided below.
(§4) To help prevent oxidation of the fatty acids, 0.05% ethoxyquin (Rendox) was added to each premix. Premixes were manufactured within 3 days of arrival of ethyl esters. To limit oxidation associated with storage, diets were manufactured once and stored in a refrigerated cooler at 4° C. during the duration of the study.
(§5) For male pens only, four out of the five pens were randomly selected. Two birds from each of these pens were randomly selected (eights birds per treatment). The right and left thigh and right and left breast from these 40 birds were bagged and labeled and frozen. The right breast and thigh samples were analyzed for shelf life stability and the left skinless breast and left boneless, skinless thigh from these same birds were analyzed for fatty acid composition.

[2] = 21 day broiler study: long chain fatty acid composition of thigh meat; format: in vivo, broiler chickens; settings: day 21-42; for ALA (C18:3n-3) / DHA (C22:6n-3) / DPA (C22:5 n-3) / EPA (C20:5n-3) / Omega 6/Omega 3 ratio / SDA (C18:4n-3) / Total omega 3's: boneless skinless thigh meat
Protocol: as §1, §2, §3, §4, §5

[3] = 42 day broiler study: fatty acid composition of breast meat; format: in vivo, broiler chickens (Ross x Ross 308)
Protocol: (§6) A 42 day study was conducted to determine whether broiler chickens fed a diet containing SDA could produce meat with elevated levels of omega-3 fatty acids as compared to chickens fed diets containing DHA and fish oil.
(§7) Fifty six pens of 25 male birds (Ross×Ross 308) per pen were used. Day old birds were obtained and immediately placed in floor pens containing (used) pine wood shavings, hanging tube feeders and nipple-waterers or plassons. Eight pens were each fed one of seven treatments for 42 days. The experiment was divided into four growth phases (0-7 days, 7-21 days, 21-35 days, and 35-42 days). The experimental diets were crumbled for the first two phases (0-21 days) and pelleted thereafter.
(§8) Diets consisted of 93% base mix (Table 10) plus 7% Test Oil Mix (Table 11). The diets supplied 3008, 3083, 3183 and 3208 kcal/kg of metabolizable energy for the pre-starter, starter, grower and finisher phases, respectively.
(§9) A randomized block design was used. Treatments were randomly assigned to pens such that each of the seven treatments was replicated 8 times (8 pens with each pen containing 25 birds).
(§10) On day 42, following a 10-hour period of feed withdrawal, 8 birds per pen (64 birds/treatment; 7 treatments; 448 birds total) were randomly selected and processed using commercial processing procedures. Carcasses were cut-up and de-boned at 4 hours postmortem. Carcass and parts yields were calculated and meat samples (breast and thigh) were collected for meat quality, fatty acid analysis, and sensory evaluation.

[4] = 42 day broiler study: fatty acid composition of thigh meat and attached skin; format: in vivo, broiler chickens (Ross x Ross 308)
Protocol: as §6, §7, §8, §9, §10

[5] = Laying hen study: long chain fatty acid composition of eggs; format: in vivo, laying hens
Protocol: A study was conducted to determine whether laying hens fed a diet enriched in stearidonic acid could produce eggs with elevated levels of beneficial omega-3 fatty acids including EPA and DHA. Mature laying hens […] were randomly allotted to seven dietary treatments (16 hens/treatment) and were fed diets containing the following levels of n-3 fatty acids as described in Table 28 for four weeks. Sixteen birds were given each treatment. Four birds were randomly selected out of the 16 per treatment to obtain eggs during week 4 for fatty acid composition. […] The laying hens had ad libitum access to feed and water. The composition of the diets (Table 29) and premixes (Table 30) are provided below. To help prevent oxidation of the fatty acids, 0.05% ethoxyquin (Rendox) was added to each premix. Premixes were manufactured within 3 days of arrival of ethyl esters. To limit the oxidation associated with storage, diets were manufactured once and stored in a refrigerated cooler at 4° C. during the duration of the study. Eggs collected during […] (days 22-28) were maintained under refrigerated conditions until all eggs for that week were collected. Eggs were sorted by hen and treatment. Two eggs per hen from 4 hens per treatment were taken. The two eggs were weighed individually, cracked and the shell weighed. The difference between fresh egg and shell represented liquid egg weight and served as the basis for further calculations. The liquid fraction from each of the two eggs per hen were combined in a sample cup and homogenized. Samples were analyzed for fatty acids by gas chromatography.

[6] = 0.27% in feed (as ethyl esters), day 0-42
[7] = thigh meat and attached skin, 0.27% in feed (as ethyl esters), day 0-42

Compound: CC/C=C\C/C=C\C/C=C\C/C=C\C/C=C\C/C=C\CCC(=O)OCC [DHA Ethyl Ester]
- ALA (C18:3n-3) ([1]; ethyl ester 0.163% of diet): 10 mg/100 g
- DHA (C22:6n-3) ([1]; ethyl ester 0.163% of diet): 55.0 mg/100 g
- DPA (C22:5 n-3) ([1]; ethyl ester 0.163% of diet): 10 mg/100 g
- EPA (C20:5n-3) ([1]; ethyl ester 0.163% of diet): 10 mg/100 g
- Omega 6/Omega 3 ratio ([1]; ethyl ester 0.163% of diet): 2.9
- Total omega 3's ([1]; ethyl ester 0.163% of diet): 85.0 mg/100 g
- ALA (C18:3n-3) ([1]; ethyl ester 0.326% of diet): 10 mg/100 g
- DHA (C22:6n-3) ([1]; ethyl ester 0.326% of diet): 80 mg/100 g
- DPA (C22:5 n-3) ([1]; ethyl ester 0.326% of diet): 10 mg/100 g
- EPA (C20:5n-3) ([1]; ethyl ester 0.326% of diet): 10 mg/100 g
- Omega 6/Omega 3 ratio ([1]; ethyl ester 0.326% of diet): 1.9
- Total omega 3's ([1]; ethyl ester 0.326% of diet): 110 mg/100 g
- ALA (C18:3n-3) ([2]; ethyl ester 0.163% of diet): 70 mg/100 g
- DHA (C22:6n-3) ([2]; ethyl ester 0.163% of diet): 67.5 mg/100 g
- DPA (C22:5 n-3) ([2]; ethyl ester 0.163% of diet): 15 mg/100 g
- EPA (C20:5n-3) ([2]; ethyl ester 0.163% of diet): 10 mg/100 g
- Omega 6/Omega 3 ratio ([2]; ethyl ester 0.163% of diet): 8.4
- SDA (C18:4n-3) ([2]; ethyl ester 0.163% of diet): 10 mg/100 g
- Total omega 3's ([2]; ethyl ester 0.163% of diet): 172.5 mg/100 g
- ALA (C18:3n-3) ([2]; ethyl ester 0.326% of diet): 75 mg/100 g
- DHA (C22:6n-3) ([2]; ethyl ester 0.326% of diet): 125 mg/100 g
- DPA (C22:5 n-3) ([2]; ethyl ester 0.326% of diet): 20 mg/100 g
- EPA (C20:5n-3) ([2]; ethyl ester 0.326% of diet): 27.5 mg/100 g
- Omega 6/Omega 3 ratio ([2]; ethyl ester 0.326% of diet): 5.7
- SDA (C18:4n-3) ([2]; ethyl ester 0.326% of diet): 10 mg/100 g
- Total omega 3's ([2]; ethyl ester 0.326% of diet): 257.5 mg/100 g
- total omega 3 fatty acids in thigh meat relative to breast meat ([2]; supplemented birds): 2 times
- ARA C20:4n-6 [3, 6]: 3.01 % of fatty acids
- C16:0 [3, 6]: 21.82 % of fatty acids
- C16:1 [3, 6]: 3.09 % of fatty acids
- C18:0 [3, 6]: 8.76 % of fatty acids
- C18:1 [3, 6]: 30.41 % of fatty acids
- C18:2 [3, 6]: 22.94 % of fatty acids
- C22:4n-6 [3, 6]: 0.53 % of fatty acids
- DHA (C22:6n-3) [3, 6]: 2.78 % of fatty acids
- DPA (C22:5 n-3) [3, 6]: 0.48 % of fatty acids
- EPA (C20:5n-3) [3, 6]: 0.16 % of fatty acids
- SDA (C18:4n-3) [3, 6]: 0.59 % of fatty acids
- Total C18:3 [3, 6]: 0.66 % of fatty acids
- Total SDA, EPA, DPA and DHA concentrations ([3]; % of fatty acids, 0.27% in feed): 4.00%
- ARA C20:4n-6 [4, 7]: 0.81 % of fatty acids
- C16:0 [4, 7]: 21.71 % of fatty acids
- C16:1 [4, 7]: 4.48 % of fatty acids
- C18:0 [4, 7]: 6.31 % of fatty acids
- C18:1 [4, 7]: 35.94 % of fatty acids
- C18:2 [4, 7]: 25.99 % of fatty acids
- C20:4n-3 [4, 7]: 0.03 % of fatty acids
- C22:4n-6 [4, 7]: 0.16 % of fatty acids
- DHA (C22:6n-3) [4, 7]: 0.73 % of fatty acids
- DPA (C22:5 n-3) [4, 7]: 0.14 % of fatty acids
- EPA (C20:5n-3) [4, 7]: 0.11 % of fatty acids
- SDA (C18:4n-3) [4, 7]: 0.24 % of fatty acids
- Total C18:3 [4, 7]: 1.03 % of fatty acids
- Total SDA, EPA, DPA and DHA concentrations ([4]; thigh meat, 0.27% in feed): 1.2%
- ALA (C18:3n-3) ([5]; total egg, 0.163% of diet): 40 mg/100 g
- DHA (C22:6n-3) ([5]; total egg, 0.163% of diet): 177.5 mg/100 g
- DPA (C22:5 n-3) ([5]; total egg, 0.163% of diet): 10 mg/100 g
- Omega 6/Omega 3 ratio ([5]; total egg, 0.163% of diet): 5.7
- Total omega 3's ([5]; total egg, 0.163% of diet): 227.5 mg/100 g
- ALA (C18:3n-3) ([5]; total egg, 0.326% of diet): 40 mg/100 g
- DHA (C22:6n-3) ([5]; total egg, 0.326% of diet): 247.5 mg/100 g
- DPA (C22:5 n-3) ([5]; total egg, 0.326% of diet): 10 mg/100 g
- EPA (C20:5n-3) ([5]; total egg, 0.326% of diet): 10 mg/100 g
- Omega 6/Omega 3 ratio ([5]; total egg, 0.326% of diet): 3.8
- Total omega 3's ([5]; total egg, 0.326% of diet): 307.5 mg/100 g

Compound: CC/C=C\C/C=C\C/C=C\CCCCCCCC(=O)OCC [ALA, alpha-Linolenic Acid - Ethyl Esters]
- accumulation of SDA or DPA in eggs ([5]; dietary enrichment of laying hens): no significant accumulation
